Measured values reported in the NIST ThermoML archive (doi:10.1021/je800085u).

Test: mn = molality of the nth substance listed, in mol/kg
Conditions: 298.15 K, 101 kPa, Liquid, Taylor dispersion method

CCCCCCCCCCP(C)(C)=O [decyldimethylphosphine oxide] + O
Conditions	binary diffusion coefficient [m2/s]
m1 = 0	5.9e-10
m1 = 0.002	5.8e-10
m1 = 0.003	5.28e-10
m1 = 0.004	2.07e-10
m1 = 0.0077	1.75e-10
m1 = 0.0111	1.56e-10
m1 = 0.0176	1.69e-10
m1 = 0.0215	1.63e-10
m1 = 0.0296	1.55e-10
m1 = 0.04	1.58e-10
